# Measured values as given in ChEMBL document CHEMBL1909046, “DrugMatrix in vitro pharmacology data”.
# Target: T1, C-X-C chemokine receptor type 1 (Homo sapiens, UniProt P25024); note: in other assays of this panel Not Active means under 50% inhibition at 10 µM
# T1 sequence (P25024 whole entry): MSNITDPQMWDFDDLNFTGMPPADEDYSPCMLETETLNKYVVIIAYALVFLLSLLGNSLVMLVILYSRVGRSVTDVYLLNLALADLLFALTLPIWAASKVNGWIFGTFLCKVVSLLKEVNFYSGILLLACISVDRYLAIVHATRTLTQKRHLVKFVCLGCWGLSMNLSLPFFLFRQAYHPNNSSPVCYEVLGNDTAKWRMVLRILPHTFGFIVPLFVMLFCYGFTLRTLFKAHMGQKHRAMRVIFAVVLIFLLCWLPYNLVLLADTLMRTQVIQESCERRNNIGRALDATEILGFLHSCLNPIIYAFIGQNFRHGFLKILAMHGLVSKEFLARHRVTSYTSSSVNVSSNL
# Experiment: not given
# Conditions: not given
row,SMILES,IC50
1,CC(C)NC[C@@H](O)COc1cccc2ccccc12 [DEXPROPRANOLOL],Not Active
2,CC(C)NC[C@H](O)COc1cccc2ccccc12 [LEVOPROPRANOLOL],Not Active
3,"O=C(O)CCCCC1CCSS1 (stereo not drawn) [LIPOIC ACID, ALPHA]",Not Active
4,CN(C)C(=O)C(CCN1CCC(O)(c2ccc(Cl)cc2)CC1)(c1ccccc1)c1ccccc1 [LOPERAMIDE],Not Active
5,Clc1ccc(COC(Cn2ccnc2)c2ccc(Cl)cc2Cl)c(Cl)c1 (centres undefined) [MICONAZOLE],Not Active
6,Oc1ccc2c3c1O[C@H]1[C@@H](O)CC[C@@]4(O)[C@@H](C2)N(CC2CCC2)CC[C@]314 [NALBUPHINE],Not Active

# Target: Prostaglandin G/H synthase 1 (Homo sapiens, UniProt P23219);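 note: inhibition of COX-1 enzyme activity, with arachidonic acid supplied as substrate; in other assays of this panel Not Active means under 50% inhibition at 10 µM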
# Sequence (P23219 whole entry): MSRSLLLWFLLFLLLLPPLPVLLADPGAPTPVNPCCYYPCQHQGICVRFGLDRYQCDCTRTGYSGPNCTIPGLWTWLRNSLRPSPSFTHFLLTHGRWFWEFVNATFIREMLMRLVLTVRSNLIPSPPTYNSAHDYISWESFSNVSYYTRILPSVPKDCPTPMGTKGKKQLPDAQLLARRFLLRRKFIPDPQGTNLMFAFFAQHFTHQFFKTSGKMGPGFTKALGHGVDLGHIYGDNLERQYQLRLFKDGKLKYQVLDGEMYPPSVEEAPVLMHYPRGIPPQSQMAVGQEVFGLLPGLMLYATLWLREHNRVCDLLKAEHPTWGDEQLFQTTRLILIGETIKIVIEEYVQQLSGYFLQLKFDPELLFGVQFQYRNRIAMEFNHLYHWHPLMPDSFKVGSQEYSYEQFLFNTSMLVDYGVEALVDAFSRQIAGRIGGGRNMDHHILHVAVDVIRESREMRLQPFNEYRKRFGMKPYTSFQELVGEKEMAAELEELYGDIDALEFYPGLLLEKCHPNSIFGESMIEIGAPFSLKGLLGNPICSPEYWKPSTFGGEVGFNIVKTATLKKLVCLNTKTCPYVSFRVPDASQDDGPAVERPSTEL
# Experiment: biochemical
# Type: tissue-based, Platelet
# Conditions: platelet
row,SMILES,IC50
1,CC(C)NC[C@@H](O)COc1cccc2ccccc12 [DEXPROPRANOLOL],Not Active
2,CC(C)NC[C@H](O)COc1cccc2ccccc12 [LEVOPROPRANOLOL],Not Active
3,"O=C(O)CCCCC1CCSS1 (stereo not drawn) [LIPOIC ACID, ALPHA]",Not Active
4,CN(C)C(=O)C(CCN1CCC(O)(c2ccc(Cl)cc2)CC1)(c1ccccc1)c1ccccc1 [LOPERAMIDE],Not Active
5,Clc1ccc(COC(Cn2ccnc2)c2ccc(Cl)cc2Cl)c(Cl)c1 (centres undefined) [MICONAZOLE],Not Active
6,Oc1ccc2c3c1O[C@H]1[C@@H](O)CC[C@@]4(O)[C@@H](C2)N(CC2CCC2)CC[C@]314 [NALBUPHINE],Not Active

# Target: Insulin receptor (Rattus norvegicus, UniProt P15127); note: in other assays of this panel Not Active means under 50% inhibition at 10 µM
# Sequence (P15127 27-759 limits assumed): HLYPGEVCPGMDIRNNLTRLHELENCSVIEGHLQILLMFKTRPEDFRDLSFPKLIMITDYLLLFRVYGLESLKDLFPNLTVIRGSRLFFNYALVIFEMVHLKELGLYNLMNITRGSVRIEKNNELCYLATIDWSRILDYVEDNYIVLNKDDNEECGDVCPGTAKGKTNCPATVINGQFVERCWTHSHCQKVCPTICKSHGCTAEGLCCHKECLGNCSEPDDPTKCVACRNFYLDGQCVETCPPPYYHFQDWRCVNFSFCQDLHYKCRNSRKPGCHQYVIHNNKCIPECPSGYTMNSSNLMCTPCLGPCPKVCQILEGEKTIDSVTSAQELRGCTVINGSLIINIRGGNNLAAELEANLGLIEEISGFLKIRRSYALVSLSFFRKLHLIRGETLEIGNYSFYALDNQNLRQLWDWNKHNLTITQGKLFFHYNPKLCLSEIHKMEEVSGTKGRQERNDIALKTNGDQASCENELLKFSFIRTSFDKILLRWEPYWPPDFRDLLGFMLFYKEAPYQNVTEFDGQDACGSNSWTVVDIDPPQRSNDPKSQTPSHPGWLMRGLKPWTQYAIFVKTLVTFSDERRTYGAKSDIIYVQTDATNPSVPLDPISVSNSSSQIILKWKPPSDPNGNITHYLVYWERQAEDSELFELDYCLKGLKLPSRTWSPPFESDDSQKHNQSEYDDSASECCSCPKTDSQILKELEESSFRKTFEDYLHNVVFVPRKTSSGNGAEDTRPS
# Sequence (P15127 764-1383 limits assumed): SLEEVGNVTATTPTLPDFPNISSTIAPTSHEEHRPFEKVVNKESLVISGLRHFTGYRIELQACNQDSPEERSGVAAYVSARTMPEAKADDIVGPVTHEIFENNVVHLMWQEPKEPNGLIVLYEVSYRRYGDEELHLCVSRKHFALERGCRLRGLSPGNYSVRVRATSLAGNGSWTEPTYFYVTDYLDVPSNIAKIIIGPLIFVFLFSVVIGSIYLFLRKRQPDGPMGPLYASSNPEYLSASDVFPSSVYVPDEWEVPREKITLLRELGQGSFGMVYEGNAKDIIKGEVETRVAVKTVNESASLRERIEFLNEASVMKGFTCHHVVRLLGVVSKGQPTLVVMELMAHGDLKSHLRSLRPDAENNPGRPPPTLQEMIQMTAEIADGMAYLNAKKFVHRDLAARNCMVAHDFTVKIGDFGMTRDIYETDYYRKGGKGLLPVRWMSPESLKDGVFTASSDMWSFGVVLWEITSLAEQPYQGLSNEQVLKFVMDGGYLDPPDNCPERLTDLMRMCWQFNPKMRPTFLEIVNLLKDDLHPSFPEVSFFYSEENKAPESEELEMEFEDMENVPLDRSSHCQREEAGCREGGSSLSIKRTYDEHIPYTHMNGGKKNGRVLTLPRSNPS
# Experiment: not given
# Type: cell membranes, Wistar, Liver, Membrane
# Conditions: not given
row,SMILES,IC50
1,CC(C)NC[C@@H](O)COc1cccc2ccccc12 [DEXPROPRANOLOL],Not Active
2,CC(C)NC[C@H](O)COc1cccc2ccccc12 [LEVOPROPRANOLOL],Not Active
3,"O=C(O)CCCCC1CCSS1 (stereo not drawn) [LIPOIC ACID, ALPHA]",Not Active
4,CN(C)C(=O)C(CCN1CCC(O)(c2ccc(Cl)cc2)CC1)(c1ccccc1)c1ccccc1 [LOPERAMIDE],Not Active
5,Clc1ccc(COC(Cn2ccnc2)c2ccc(Cl)cc2Cl)c(Cl)c1 (centres undefined) [MICONAZOLE],Not Active
6,Oc1ccc2c3c1O[C@H]1[C@@H](O)CC[C@@]4(O)[C@@H](C2)N(CC2CCC2)CC[C@]314 [NALBUPHINE],Not Active

# Target: T2, Neuropeptide Y receptor type 1 (Homo sapiens, UniProt P25929); note: in other assays of this panel Not Active means under 50% inhibition at 10 µM
# T2 sequence (P25929 whole entry): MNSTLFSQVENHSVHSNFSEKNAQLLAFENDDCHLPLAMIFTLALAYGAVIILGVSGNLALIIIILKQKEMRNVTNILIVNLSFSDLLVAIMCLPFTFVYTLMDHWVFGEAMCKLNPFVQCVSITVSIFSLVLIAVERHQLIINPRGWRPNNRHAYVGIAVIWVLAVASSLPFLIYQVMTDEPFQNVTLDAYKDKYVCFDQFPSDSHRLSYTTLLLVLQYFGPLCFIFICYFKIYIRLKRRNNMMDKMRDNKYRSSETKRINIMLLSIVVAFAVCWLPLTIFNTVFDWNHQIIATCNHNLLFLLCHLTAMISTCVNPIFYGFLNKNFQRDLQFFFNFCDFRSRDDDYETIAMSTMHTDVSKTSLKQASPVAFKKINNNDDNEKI
# Experiment: not given
# Type: cell membranes, Membrane
# Conditions: sk-n-mc
row,SMILES,IC50
1,CC(C)NC[C@@H](O)COc1cccc2ccccc12 [DEXPROPRANOLOL],Not Active
2,CC(C)NC[C@H](O)COc1cccc2ccccc12 [LEVOPROPRANOLOL],Not Active
3,"O=C(O)CCCCC1CCSS1 (stereo not drawn) [LIPOIC ACID, ALPHA]",Not Active
4,CN(C)C(=O)C(CCN1CCC(O)(c2ccc(Cl)cc2)CC1)(c1ccccc1)c1ccccc1 [LOPERAMIDE],Not Active
5,Clc1ccc(COC(Cn2ccnc2)c2ccc(Cl)cc2Cl)c(Cl)c1 (centres undefined) [MICONAZOLE],Not Active
6,Oc1ccc2c3c1O[C@H]1[C@@H](O)CC[C@@]4(O)[C@@H](C2)N(CC2CCC2)CC[C@]314 [NALBUPHINE],Not Active

# Target: Nitric oxide synthase 1 (Rattus norvegicus, UniProt P29476); note: in other assays of this panel Not Active means under 50% inhibition at 10 µM
# Sequence (P29476 whole entry): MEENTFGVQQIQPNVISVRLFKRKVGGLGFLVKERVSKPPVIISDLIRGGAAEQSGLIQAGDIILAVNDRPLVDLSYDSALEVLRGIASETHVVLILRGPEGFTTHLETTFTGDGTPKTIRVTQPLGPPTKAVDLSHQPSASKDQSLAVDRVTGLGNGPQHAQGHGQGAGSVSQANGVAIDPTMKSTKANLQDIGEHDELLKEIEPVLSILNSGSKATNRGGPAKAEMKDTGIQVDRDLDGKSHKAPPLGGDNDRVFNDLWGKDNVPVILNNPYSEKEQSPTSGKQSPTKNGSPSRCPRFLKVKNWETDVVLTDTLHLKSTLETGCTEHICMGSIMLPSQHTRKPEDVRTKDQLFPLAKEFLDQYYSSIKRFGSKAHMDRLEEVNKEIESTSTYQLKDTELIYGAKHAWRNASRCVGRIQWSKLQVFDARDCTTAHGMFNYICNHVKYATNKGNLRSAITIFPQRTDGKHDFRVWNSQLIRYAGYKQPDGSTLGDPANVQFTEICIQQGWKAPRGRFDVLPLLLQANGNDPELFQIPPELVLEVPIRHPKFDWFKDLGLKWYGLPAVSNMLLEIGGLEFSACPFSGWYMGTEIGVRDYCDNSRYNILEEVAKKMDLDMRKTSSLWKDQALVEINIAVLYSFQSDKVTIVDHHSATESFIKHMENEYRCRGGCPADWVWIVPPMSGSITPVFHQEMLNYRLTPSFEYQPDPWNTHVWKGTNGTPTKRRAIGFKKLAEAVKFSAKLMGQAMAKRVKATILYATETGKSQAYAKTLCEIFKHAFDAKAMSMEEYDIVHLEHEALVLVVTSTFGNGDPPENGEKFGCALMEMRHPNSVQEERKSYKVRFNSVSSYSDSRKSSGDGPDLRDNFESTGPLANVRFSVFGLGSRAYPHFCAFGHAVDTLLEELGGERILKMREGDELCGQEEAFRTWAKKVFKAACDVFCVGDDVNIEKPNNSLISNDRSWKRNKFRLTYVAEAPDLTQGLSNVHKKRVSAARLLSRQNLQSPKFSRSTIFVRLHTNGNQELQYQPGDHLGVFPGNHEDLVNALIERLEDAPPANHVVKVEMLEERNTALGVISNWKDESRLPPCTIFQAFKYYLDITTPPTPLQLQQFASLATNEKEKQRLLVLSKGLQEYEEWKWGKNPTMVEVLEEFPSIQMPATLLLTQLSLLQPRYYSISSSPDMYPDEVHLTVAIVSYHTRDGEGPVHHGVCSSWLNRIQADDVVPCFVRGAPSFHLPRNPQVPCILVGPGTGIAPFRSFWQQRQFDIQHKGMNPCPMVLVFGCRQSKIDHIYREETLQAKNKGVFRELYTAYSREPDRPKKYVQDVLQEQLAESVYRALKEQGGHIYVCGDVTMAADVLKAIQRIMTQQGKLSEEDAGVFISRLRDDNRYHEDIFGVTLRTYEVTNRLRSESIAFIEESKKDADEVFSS
# Experiment: not given
# Type: tissue-based, Cerebellum
# Conditions: not given
row,SMILES,IC50
1,CC(C)NC[C@@H](O)COc1cccc2ccccc12 [DEXPROPRANOLOL],Not Active
2,CC(C)NC[C@H](O)COc1cccc2ccccc12 [LEVOPROPRANOLOL],Not Active
3,"O=C(O)CCCCC1CCSS1 (stereo not drawn) [LIPOIC ACID, ALPHA]",Not Active
4,CN(C)C(=O)C(CCN1CCC(O)(c2ccc(Cl)cc2)CC1)(c1ccccc1)c1ccccc1 [LOPERAMIDE],Not Active
5,Clc1ccc(COC(Cn2ccnc2)c2ccc(Cl)cc2Cl)c(Cl)c1 (centres undefined) [MICONAZOLE],Not Active
6,Oc1ccc2c3c1O[C@H]1[C@@H](O)CC[C@@]4(O)[C@@H](C2)N(CC2CCC2)CC[C@]314 [NALBUPHINE],Not Active

# Target: Mitogen-activated protein kinase 1 (Homo sapiens, UniProt P28482)
# Sequence (P28482 whole entry): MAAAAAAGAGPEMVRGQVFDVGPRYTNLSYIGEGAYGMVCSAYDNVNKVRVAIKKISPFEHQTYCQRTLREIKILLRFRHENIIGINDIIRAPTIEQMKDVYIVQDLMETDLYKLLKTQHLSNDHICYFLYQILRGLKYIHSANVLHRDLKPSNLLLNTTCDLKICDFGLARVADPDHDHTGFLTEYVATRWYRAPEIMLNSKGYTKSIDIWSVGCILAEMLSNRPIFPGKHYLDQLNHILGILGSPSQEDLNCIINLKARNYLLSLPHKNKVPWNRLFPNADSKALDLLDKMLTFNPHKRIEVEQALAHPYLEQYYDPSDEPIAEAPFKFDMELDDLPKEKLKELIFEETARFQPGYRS
# Experiment: DRUGMATRIX: Protein Serine/Threonine Kinase, ERK2 enzyme inhibition (substrate: Myelin Basic Protein)
# Design: species or system Escherichia coli
# Conditions: Not Active = under 50% inhibition at 10 µM
row,SMILES,IC50
1,CC(C)NC[C@@H](O)COc1cccc2ccccc12 [DEXPROPRANOLOL],Not Active
2,CC(C)NC[C@H](O)COc1cccc2ccccc12 [LEVOPROPRANOLOL],Not Active
3,"O=C(O)CCCCC1CCSS1 (stereo not drawn) [LIPOIC ACID, ALPHA]",Not Active
4,CN(C)C(=O)C(CCN1CCC(O)(c2ccc(Cl)cc2)CC1)(c1ccccc1)c1ccccc1 [LOPERAMIDE],Not Active
5,Clc1ccc(COC(Cn2ccnc2)c2ccc(Cl)cc2Cl)c(Cl)c1 (centres undefined) [MICONAZOLE],Not Active
6,Oc1ccc2c3c1O[C@H]1[C@@H](O)CC[C@@]4(O)[C@@H](C2)N(CC2CCC2)CC[C@]314 [NALBUPHINE],Not Active

# Target: T3, Receptor-type tyrosine-protein phosphatase C (Homo sapiens, UniProt P08575)
# T3 sequence (P08575 whole entry): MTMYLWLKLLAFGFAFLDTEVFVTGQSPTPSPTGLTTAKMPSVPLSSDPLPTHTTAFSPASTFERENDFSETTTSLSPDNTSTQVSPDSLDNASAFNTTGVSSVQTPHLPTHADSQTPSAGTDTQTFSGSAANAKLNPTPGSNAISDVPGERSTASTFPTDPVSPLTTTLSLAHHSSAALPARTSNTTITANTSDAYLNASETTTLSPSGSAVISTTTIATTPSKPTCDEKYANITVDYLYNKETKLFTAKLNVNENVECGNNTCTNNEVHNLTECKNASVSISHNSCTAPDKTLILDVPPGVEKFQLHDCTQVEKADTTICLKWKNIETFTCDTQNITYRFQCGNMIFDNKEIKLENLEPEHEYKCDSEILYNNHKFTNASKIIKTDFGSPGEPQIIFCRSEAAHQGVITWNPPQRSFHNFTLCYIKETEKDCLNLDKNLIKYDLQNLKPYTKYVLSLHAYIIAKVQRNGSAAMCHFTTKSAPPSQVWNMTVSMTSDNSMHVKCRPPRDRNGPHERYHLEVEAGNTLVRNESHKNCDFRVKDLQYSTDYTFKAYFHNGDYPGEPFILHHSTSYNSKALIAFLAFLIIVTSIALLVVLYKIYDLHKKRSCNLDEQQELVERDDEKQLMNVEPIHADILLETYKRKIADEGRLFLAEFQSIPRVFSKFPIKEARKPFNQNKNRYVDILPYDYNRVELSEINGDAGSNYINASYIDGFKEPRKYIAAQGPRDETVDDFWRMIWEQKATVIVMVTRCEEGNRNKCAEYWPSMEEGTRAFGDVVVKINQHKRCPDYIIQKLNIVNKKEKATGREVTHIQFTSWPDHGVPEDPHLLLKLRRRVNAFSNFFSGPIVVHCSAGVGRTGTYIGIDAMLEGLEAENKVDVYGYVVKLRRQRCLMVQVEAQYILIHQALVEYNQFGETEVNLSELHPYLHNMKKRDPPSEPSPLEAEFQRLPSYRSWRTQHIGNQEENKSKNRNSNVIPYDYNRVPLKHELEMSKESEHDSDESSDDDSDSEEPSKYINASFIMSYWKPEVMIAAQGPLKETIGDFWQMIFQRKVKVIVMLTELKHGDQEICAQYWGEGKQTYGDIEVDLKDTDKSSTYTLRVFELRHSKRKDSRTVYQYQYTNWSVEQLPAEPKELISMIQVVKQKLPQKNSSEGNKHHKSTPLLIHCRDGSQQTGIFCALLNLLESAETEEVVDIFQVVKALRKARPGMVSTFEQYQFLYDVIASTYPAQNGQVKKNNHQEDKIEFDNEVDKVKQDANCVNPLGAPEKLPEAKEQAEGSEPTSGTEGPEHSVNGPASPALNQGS
# Experiment: not given
# Design: species or system Escherichia coli
# Conditions: not given
row,SMILES,IC50
1,CC(C)NC[C@@H](O)COc1cccc2ccccc12 [DEXPROPRANOLOL],Not Active
2,CC(C)NC[C@H](O)COc1cccc2ccccc12 [LEVOPROPRANOLOL],Not Active
3,"O=C(O)CCCCC1CCSS1 (stereo not drawn) [LIPOIC ACID, ALPHA]",Not Active
4,CN(C)C(=O)C(CCN1CCC(O)(c2ccc(Cl)cc2)CC1)(c1ccccc1)c1ccccc1 [LOPERAMIDE],Not Active
5,Clc1ccc(COC(Cn2ccnc2)c2ccc(Cl)cc2Cl)c(Cl)c1 (centres undefined) [MICONAZOLE],Not Active
6,Oc1ccc2c3c1O[C@H]1[C@@H](O)CC[C@@]4(O)[C@@H](C2)N(CC2CCC2)CC[C@]314 [NALBUPHINE],Not Active

# Target: 5-hydroxytryptamine receptor 1B (Rattus norvegicus, UniProt P28564); note: in other assays of this panel Not Active means under 50% inhibition at 10 µM
# Sequence (P28564 whole entry): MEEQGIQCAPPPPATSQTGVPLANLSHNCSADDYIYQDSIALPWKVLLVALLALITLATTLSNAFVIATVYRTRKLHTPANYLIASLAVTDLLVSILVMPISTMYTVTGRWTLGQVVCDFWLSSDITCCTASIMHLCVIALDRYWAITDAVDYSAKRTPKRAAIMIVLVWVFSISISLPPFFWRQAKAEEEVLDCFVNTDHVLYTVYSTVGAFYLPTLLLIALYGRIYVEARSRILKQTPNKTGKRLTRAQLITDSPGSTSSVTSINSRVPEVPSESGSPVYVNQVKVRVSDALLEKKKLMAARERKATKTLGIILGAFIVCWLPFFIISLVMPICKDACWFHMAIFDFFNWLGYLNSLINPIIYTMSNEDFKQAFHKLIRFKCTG
# Experiment: not given
# Type: cell membranes, Wistar, Cerebral cortex, Membrane
# Conditions: not given
row,SMILES,IC50
1,CC(C)NC[C@@H](O)COc1cccc2ccccc12 [DEXPROPRANOLOL],Not Active
2,CC(C)NC[C@H](O)COc1cccc2ccccc12 [LEVOPROPRANOLOL],Not Active
3,"O=C(O)CCCCC1CCSS1 (stereo not drawn) [LIPOIC ACID, ALPHA]",Not Active
4,CN(C)C(=O)C(CCN1CCC(O)(c2ccc(Cl)cc2)CC1)(c1ccccc1)c1ccccc1 [LOPERAMIDE],Not Active
5,Oc1ccc2c3c1O[C@H]1[C@@H](O)CC[C@@]4(O)[C@@H](C2)N(CC2CCC2)CC[C@]314 [NALBUPHINE],Not Active

# Same assay, conditions: read-out: IC50
row,SMILES,IC50
1,Clc1ccc(COC(Cn2ccnc2)c2ccc(Cl)cc2Cl)c(Cl)c1 (centres undefined) [MICONAZOLE],20.6 µM

# Same assay, conditions: read-out: Ki
row,SMILES,Ki
1,Clc1ccc(COC(Cn2ccnc2)c2ccc(Cl)cc2Cl)c(Cl)c1 (centres undefined) [MICONAZOLE],9.36 µM
